One assay concerns DU-145. Description: Antiproliferative activity against human DU145 cells after 48 hrs by SRB assay. As to conditions: DU-145, 48 h, read-out: GI50. In kind it is functional. For orientation: In SRB staining, fixed cells bind dye roughly in proportion to their protein.
The subject of the next assay is SK-OV-3. Description: Antiproliferative activity against human SKOV3 cells after 48 hrs by SRB assay. In kind it is functional. To be noted: SK-OV-3, 48 h, read-out: GI50.
A further assay has as its system ACHN. Description: Antiproliferative activity against human ACHN cells after 48 hrs by SRB assay. In kind it is functional. To be noted: read-out: GI50.
In a further assay the test system is NCI-H522. Description: Antiproliferative activity against human NCI-H522 cells after 48 hrs by SRB assay. In kind it is functional. To be noted: NCI-H522, 48 h, read-out: GI50.
The subject of another assay is LOX IMVI. Description: Antiproliferative activity against human LOXIMVI cells after 48 hrs by SRB assay. In kind it is functional. To be noted: read-out: GI50.
In another assay the test system is U-251. Description: Antiproliferative activity against human U251 cells after 48 hrs by SRB assay. In kind it is functional. To be noted: U-251, 48 h, read-out: GI50.
The next assay concerns HCT-116. Description: Antiproliferative activity against human HCT116 cells after 48 hrs by SRB assay. In kind it is functional. To be noted: HCT-116, 48 h, read-out: GI50.
Another assay has as its system MCF7. Description: Antiproliferative activity against human MCF7 cells after 48 hrs by SRB assay. In kind it is functional. To be noted: MCF7, 48 h, read-out: GI50.
The next assay has as its system MKN-28. Description: Antiproliferative activity against human MKN28 cells after 48 hrs by SRB assay. In kind it is functional. To be noted: MKN-28, 48 h, read-out: GI50.
Another assay has as its system Colon 26. Description: Antitumor activity against mouse Colon 26 cells implanted in BALB/c mouse at 50 mg/kg, iv administered every 2 days for 7 times starting 1 day after tumor implantation and measured daily until day 20. In kind it is functional, organism-based.
Assay [1] has as its target T1, DNA topoisomerase I (Bos taurus) (UniProt F1MN93).
T1 sequence (whole entry): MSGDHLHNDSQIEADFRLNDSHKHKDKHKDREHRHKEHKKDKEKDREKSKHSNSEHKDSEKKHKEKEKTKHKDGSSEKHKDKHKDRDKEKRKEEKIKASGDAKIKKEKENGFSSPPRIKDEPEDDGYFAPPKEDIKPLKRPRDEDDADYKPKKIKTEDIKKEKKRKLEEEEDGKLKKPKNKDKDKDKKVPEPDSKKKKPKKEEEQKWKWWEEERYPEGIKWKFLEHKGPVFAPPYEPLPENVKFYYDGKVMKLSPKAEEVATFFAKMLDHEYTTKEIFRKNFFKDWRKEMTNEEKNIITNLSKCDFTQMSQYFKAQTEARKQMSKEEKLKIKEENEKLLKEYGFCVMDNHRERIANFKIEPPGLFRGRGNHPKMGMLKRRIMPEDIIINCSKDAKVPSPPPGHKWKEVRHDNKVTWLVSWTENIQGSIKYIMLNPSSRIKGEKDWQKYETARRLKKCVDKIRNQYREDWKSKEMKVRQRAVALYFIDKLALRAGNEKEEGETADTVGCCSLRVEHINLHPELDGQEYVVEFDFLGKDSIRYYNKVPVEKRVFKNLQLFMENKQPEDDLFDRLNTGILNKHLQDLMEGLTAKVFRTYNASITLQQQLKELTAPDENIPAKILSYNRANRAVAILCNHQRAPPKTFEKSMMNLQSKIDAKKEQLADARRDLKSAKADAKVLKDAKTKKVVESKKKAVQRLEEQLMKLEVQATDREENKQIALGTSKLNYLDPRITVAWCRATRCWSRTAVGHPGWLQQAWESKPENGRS
Description: Inhibition of calf thymus DNA topoisomerase 1 assessed as reduction in enzyme-mediated relaxation of supercoiled pBR322 plasmid DNA at 10 uM after 30 mins by agarose gel electrophoresis.

For assay [2], the target named is T1, DNA topoisomerase I (Bos taurus). Description: Inhibition of calf thymus DNA topoisomerase 1 assessed as reduction in enzyme-mediated relaxation of supercoiled pBR322 plasmid DNA at 10 uM after 30 mins by ethidium bromide staining-based agarose gel electrophoresis.

Activity calls are given as the source filed them. No cut-off for these calls is given here.

Turning to `COc1cc2c(cc1O)oc(=O)c1c2c(CN(C)C)c2c3cc(OC)c(O)cc3ccn21`, the GI50 is 110 nM with DU-145; 1600 nM in the assay with SK-OV-3; 44 nM in the assay on ACHN; 82 nM with NCI-H522; 180 nM in the assay on LOX IMVI; 100 nM in the assay with U-251. Besides, the figures for the GI50 with HCT-116, in the assay with MCF7 and in the assay on MKN-28 were 310 nM, 55 nM and 2300 nM, respectively.
Regarding `CCc1c2c(nc3ccc(OC(=O)N4CCC(N5CCCCC5)CC4)cc13)-c1cc3c(c(=O)n1C2)COC(=O)[C@]3(O)CC`, the outcome in the assay on Colon 26 was Active.
As to `COc1cc2c(cc1O)oc(=O)c1c2c(C)c2c3cc(OC)c(O)cc3ccn21`, the concentration for 50% growth inhibition (GI50) in the assay on DU-145 was determined as 4.7 nM; in the assay on SK-OV-3, 38 nM; in the assay with ACHN it was 3.8 nM; in the assay with NCI-H522, 4.7 nM; with LOX IMVI it was 5.5 nM; in the assay on U-251 it was 9.1 nM. Also, the values for the GI50 with HCT-116, with MCF7 and in the assay on MKN-28 were 33 nM, 110 nM and 64 nM, respectively.
Turning to `COc1cc2c(ccc3c2[nH]c2c4cc(OC)c(O)cc4oc(=O)c32)cc1O`, the GI50 with DU-145 was 51 nM; in the assay with SK-OV-3 it was 330 nM; with ACHN, 110 nM; with NCI-H522, under 10 nM; in the assay with LOX IMVI it was 21 nM; in the assay with U-251 it was under 10 nM. The values for the GI50 in the assay on HCT-116, in the assay with MCF7 and in the assay with MKN-28 were 88 nM, 68 nM and 1600 nM, respectively. Besides, the inhibition entry in assay [1] and in assay [2] was “Active” each time.
For `COc1cc(-c2c3c4cc(OC)c(O)cc4oc(=O)c3n3ccc4cc(O)c(OC)cc4c23)ccc1O` [LAMELLARIN D], the 50% growth inhibitory concentration (GI50) in the assay with DU-145 is under 10 nM; in the assay with SK-OV-3, 38 nM; in the assay with ACHN, under 10 nM; with NCI-H522, under 10 nM; with LOX IMVI it was under 10 nM; in the assay on U-251 it was under 10 nM. Further, the GI50 is under 10 nM in the assay with HCT-116, under 10 nM with MCF7 and 50 nM in the assay with MKN-28. In addition, the inhibition entry in assay [1] and in assay [2] was “Active” in each case.
As to `COc1cc2c(cc1O)oc(=O)c1c2c(Br)c2c3cc(OC)c(O)cc3ccn21`, the GI50 with DU-145 amounted to 28 nM; in the assay with SK-OV-3 it was 500 nM; in the assay on ACHN it was 15 nM; in the assay on NCI-H522, 14 nM; in the assay on LOX IMVI, 25 nM; in the assay with U-251, 29 nM. For the same compound, the concentration for 50% growth inhibition (GI50) in the assay on HCT-116 stood at 67 nM; in the assay on MCF7, 41 nM; with MKN-28, 560 nM.
For `COc1cc2c(ccc3c4c(=O)oc5cc(O)c(OC)cc5c4n(CCN(C)C)c23)cc1O`, the GI50 with DU-145 was 2 nM; with SK-OV-3, 26 nM; in the assay with ACHN, 1.9 nM; in the assay on NCI-H522, 3.9 nM; with LOX IMVI it was 2.7 nM; in the assay with U-251, 4 nM. The GI50 in the assay on HCT-116 came out at 9.7 nM; in the assay with MCF7, 2.6 nM; in the assay with MKN-28, 67 nM. The inhibition result in [1] and in assay [2] was “Active” throughout.
As for `COc1cc2c(cc1O)oc(=O)c1c2c(F)c2c3cc(OC)c(O)cc3ccn21`, the GI50 with DU-145 was 24 nM; in the assay with SK-OV-3, 470 nM; in the assay with ACHN it was 28 nM; in the assay with NCI-H522 it was under 10 nM; in the assay with LOX IMVI, 24 nM; in the assay on U-251, 71 nM. Moreover, the results for the GI50 in the assay with HCT-116, in the assay with MCF7 and with MKN-28 were 120 nM, 110 nM and 360 nM, respectively.
`COc1cc2c(cc1O)oc(=O)c1c2c(C=O)c2c3cc(OC)c(O)cc3ccn21`: the GI50 in the assay on DU-145 was 28 nM; in the assay on SK-OV-3 it was 230 nM; in the assay on ACHN, 26 nM; in the assay with NCI-H522 it was 21 nM; in the assay on LOX IMVI, 35 nM; in the assay with U-251, 29 nM. Also, the 50% growth inhibitory concentration (GI50) in the assay with HCT-116 was 78 nM; in the assay with MCF7, 37 nM; in the assay on MKN-28 it was 230 nM.
With `COc1cc2c(cc1O)oc(=O)c1c2cc2c3cc(OC)c(O)cc3ccn21`, the GI50 with DU-145 is 20 nM; with SK-OV-3, 83 nM; with ACHN, 14 nM; in the assay with NCI-H522, under 10 nM; in the assay with LOX IMVI it was 20 nM; in the assay on U-251 it was 27 nM. Further, the values for the GI50 with HCT-116, in the assay on MCF7 and in the assay on MKN-28 were 33 nM, 76 nM and 84 nM, respectively.
Take `C=CCn1c2c3cc(OC)c(O)cc3ccc2c2c(=O)oc3cc(O)c(OC)cc3c21`: the GI50 came to 6.5 nM in the assay with DU-145; 29 nM with SK-OV-3; 4.2 nM in the assay with ACHN; 9.5 nM in the assay with NCI-H522; 6.4 nM with LOX IMVI; 7.6 nM in the assay with U-251. In addition, the figures for the GI50 with HCT-116, with MCF7 and in the assay on MKN-28 were 25 nM, 14 nM and 82 nM, respectively.
Regarding `CCn1c2c3cc(OC)c(O)cc3ccc2c2c(=O)oc3cc(O)c(OC)cc3c21`, the GI50 in the assay on DU-145, with SK-OV-3, in the assay on ACHN, with NCI-H522, in the assay with LOX IMVI and with U-251 was under 10 nM throughout. The GI50 in the assay with HCT-116, with MCF7 and in the assay with MKN-28 was under 10 nM throughout.
Regarding `C#CCn1c2c3cc(OC)c(O)cc3ccc2c2c(=O)oc3cc(O)c(OC)cc3c21`, the GI50 with DU-145 was 27 nM; with SK-OV-3 it was 56 nM; in the assay with ACHN, under 10 nM; in the assay with NCI-H522, under 10 nM; in the assay with LOX IMVI, under 10 nM; with U-251, under 10 nM. For the same compound, the GI50 is 34 nM in the assay on HCT-116, 18 nM in the assay on MCF7 and 66 nM with MKN-28.
For the compound `COc1cc2c(cc1O)oc(=O)c1c2c(Cl)c2c3cc(OC)c(O)cc3ccn21`, the concentration for 50% growth inhibition (GI50) is under 10 nM in the assay with DU-145; 250 nM in the assay on SK-OV-3; under 10 nM in the assay with ACHN; under 10 nM in the assay on NCI-H522; under 10 nM with LOX IMVI; under 10 nM with U-251. Moreover, the GI50 came to 37 nM in the assay on HCT-116, 13 nM in the assay with MCF7 and 130 nM in the assay with MKN-28.
For the compound `CCc1c2c(nc3ccc(O)cc13)-c1cc3c(c(=O)n1C2)COC(=O)[C@]3(O)CC` [7-ETHYL-10-HYDROXYCAMPTOTHECIN], the GI50 in the assay with DU-145 came out at 4.3 nM; with SK-OV-3, 23 nM; with ACHN, 5.9 nM; with NCI-H522, 3.7 nM; in the assay with LOX IMVI, 5.3 nM; in the assay with U-251, 2.8 nM. Further, the figures for the GI50 with HCT-116, with MCF7 and with MKN-28 were 23 nM, 3 nM and 110 nM, respectively.
As to `CC[C@@]1(O)C(=O)OCc2c1cc1n(c2=O)Cc2cc3ccccc3nc2-1`, the inhibition entry in [1] and in assay [2] was “Active” each time.

The GI50 is the concentration that inhibits growth by half.

(Values after ChEMBL document CHEMBL4308908, “Lamellarin-inspired potent topoisomerase I inhibitors with the unprecedented benzo[g][1]benzopyrano[4,3-b]indol-6(13H)-one scaffold” (Bioorg Med Chem, 2019).)
